Data from patent US8193238B2, “Inhibition of microtubule protrusion in cancer cells” (University of Maryland, Baltimore, priority 2006, dated 2012).

Key:
[1] = tested on: detached mammary epithelial cells; experiment: Protrusions of detached mammary epithelial cells, general statements; type: cell-based, human and mouse
Description: Time-lapse video microscopy of detached mammary epithelial cells detected the extension of long, dynamic protrusions of the plasma membrane, and the present inventors have characterized the cytoskeletal mechanism underlying this novel observation. […] This response may be relatively short-lived, in specific embodiments, since mammary epithelial cells die by apoptosis within about 24 hours in suspension. However, cell lines that resist apoptosis through expression of either Bcl-2 or Bcl-xL will persistently form protrusions. Previous studies by the inventors indicate that such apoptotically-resistant cell lines will not form tumors in mice and lie dormant in distant tissues, in specific embodiments of the invention. […] These microtubule processes can extend more than 3 times the cell diameter, and undergo a rapid probing motion more than once per second. Formation of these microtubule protrusions is necessary for efficient cell-cell and cell-substratum attachment. In particular embodiments of the invention, this inherent microtubule response in detached mammary epithelial cells provides at least some of the invasive characteristics of breast cancer, independent of any tumor-specific genetic alteration, for example.
Breast tumor cells enter the bloodstream long before the development of clinically evident metastasis. However, the early presence of such bloodborne cells predicts poor patient outcome. Nearly 90% of human breast tumors arise as carcinomas from mammary epithelial cells, so it is important to characterize how these cells respond to the detached conditions that they would experience in the bloodstream. In the present invention, mammary epithelial cell lines produce long and dynamic protrusions of the plasma membrane when detached. Although human and mouse mammary epithelial cell lines die by apoptosis within 16 hours of detachment, this protrusive response persists for days in cells overexpressing either Bcl-2 or Bcl-xL, for example. […] Since bloodborne metastasis depends on both cell-cell and cell-matrix attachment, microtubule-based protrusions in detached mammary epithelial cells provide a novel target that could influence the metastatic spread of breast tumors.
Detachment-induced increases in Glu-tubulin could promote plasma membrane protrusions of microtubules by preventing efficient capture at the actin cortex. […] Therefore, our current model is that detachment increases stabilized microtubules enriched in Glu-tubulin, while decreased actin polymerization simply promotes extension of these microtubule protrusions.

EpH4-Bcl2 cells [2] = experiment: Cell-substratum attachment assay; type: cell-based, mouse; conditions: for attachment of cells to tissue culture surfaces: EpH4-Bcl2 (B19), 1 hr in suspension with inhibitor, then replated
Description: (§1) In FIG. 6A, EpH4-Bcl2 cells were suspended over agarose and treated with inhibitors as above. Following treatment, cells were plated into 0.3% methylcellulose media over agarose and the rate of cell-cell attachment was followed by Hoescht DNA staining. […] Similar results were found in three independent experiments. In FIG. 6B, EpH4-Bcl2 cells suspended over agarose for one hour in DMEM or DMEM containing LA (5 μM), Colchicine (1 μM), or the combination. Reattachment of these cells to either uncoated tissue culture plates or those pre-coated with laminin was followed by XTT cell viability assay. Values represent mean+S.D. of raw XTT values of three separate experiments.
Equivalent numbers of B19 cells were suspended over 6-well plates coated in 2% agarose in serum-free media containing 5 μM Latrunculin-A (LA; BioMol, Plymouth Meeting, Pa.), 100 μM colchicine (Col; Sigma, St. Louis, Mo.), 5 μg/ml nocodazole (Noc), or 1 μg/ml vinblastine (VinB; Sigma) for a duration of 1 hr at 37° C. Cells were collected by centrifugation (1000 rpm×5 min) and drug containing media was aspirated. Cells were resuspended in EpH4 serum-containing growth media and aliquoted out into 24 wells (8 timepoints×3 replicates) of a 96-well clear bottom black plate. After plating, cells were allowed to attach for duration of 15 min, 45 min, 1.5 hr, 2 hr, 3 hr, 4 hr, 5 hr, and 24 hr at which point the media was aspirated from the replicate wells, washed twice in PBS, and fresh growth media was replaced at each timepoint. After 24 hr, all wells were aspirated and cells were incubated in growth media containing Hoescht 33342 (1:5000) for 30 min at 37° C. to label all attached cells. Fluorescence was measured using a Biotek Synergy HT Multi-Detection Microplate Reader (Winooski, Vt.) at excitation wavelength 360 nm and an emission filter of 460 nm followed by subsequent analysis using the KC4 Data Analysis software. The percentage of cell attachment for each treatment exposure was calculated as the RFU at each timepoint divided by the RFU at 24 h (maximum attachment). The standard deviations of triplicates at each timepoint are shown.
(§2) To determine if these microtubule protrusions influence the ability of cells to form attachments, the cells were treated with inhibitors of actin or tubulin polymerization and assessed both cell-cell and cell-substratum attachment (FIG. 6). […] Induction of such nonspecific attachment activity in detached mammary epithelial cells could promote tumor cell dissemination, particularly when apoptotic resistance allows this response to continue for extended periods.

EpH4-Bcl2 cells [3] = experiment: Cell-cell attachment assay; type: cell-based, mouse; conditions: EpH4-Bcl2 in 0.3% methylcellulose over agarose, 5 hours
Description: as §1
B19 cells were seeded onto 10 cm dishes until 80% confluency. The media was aspirated and cells were incubated in fresh growth media containing Hoescht 33342 (1:5000) for 30 min at 37° C. to label all attached cells. The cells were washed twice in PBS, detached by trypsinization, and an equivalent number of cells were resuspended in serum-free media containing 0.3% methylcellulose with either 5 μM Latrunculin A, 100 μM Colchicine, 1 μg/ml vinblastine, or 5 μg/ml nocodazole and plated over 2% agarose-coated 24-well plates. The progression of cell-cell adhesion over time was visualized by the EpiChemi3 Imaging System (UVP, Inc.; Upland, Calif.) using an excitation wavelength of 365 nm and a blue band pass filter. Images were obtained with an attached Hamamatsu CCD camera (Hamamatsu Photonics, Hamamatsu City, Japan) and analyzed with UVP Labworks Image Acquisition and Analysis Software v. 4.6.
as §2

MCF10A cells [4] = experiment: Chemical inhibition of Latrunculin-A-enhanced microtubule protrusions in suspended cells; type: cell-based, human; conditions: MCF10A in suspension, then LA 5 μM one hour; sodium orthovanadate 1 mM, S-Trityl-L-Cysteine 100 μM, TDZD-8 20 μM
Description: MCF10A cells were placed into suspension in the presence of the indicated chemical inhibitors targeted at specific signaling pathways or the corresponding vehicle controls. Cells were then treated with the actin polymerization inhibitor, Latrunculin-A (LA, 5 μM) for one hour to enhance protrusions. […] Thus, protrusions can be reduced by chemical inhibition of specific signaling proteins.

Bt-474 = experiment: GFP-membrane protrusion counts after local anesthetics (Bt-474); type: cell-based, human; conditions: Bt-474, GFP-membrane; Lidocaine 50 mM, Tetracaine 2.5 mM; with or without LA
Description: (§3) Cells were then suspended in DMEM culture media with or without […] Latrunculin-A (LA) to induce protrusions by depolymerizing actin. […] Bars represent mean+S.D. of at least three blindly counted experiments.

MDA-231 = experiment: GFP-membrane protrusion counts after local anesthetics (MDA-231); type: cell-based, human; conditions: MDA-231, GFP-membrane; Lidocaine 50 mM, Tetracaine 2.5 mM; with or without LA
Description: as §3

metastasis = conditions: known, via unclear mechanism; cited from earlier work
EpH4 cells = experiment: Protrusions in suspended cells treated with cytoskeletal inhibitors (EpH4); type: cell-based, mouse; conditions: EpH4, 15 minutes of suspension; Latrunculin-A 5 μM, Colchicine 1 μM
Description: (§4) In FIG. 2A, after 15 minutes of suspension, protrusions in EpH4 and MCF10A cells are quite small (Control, white arrows). […] In FIG. 2B, populations of live, suspended cells were scored blindly for two or more protrusions longer than the cell radius. Each bar represents the mean+S.D. for three experiments in which at least 100 single cells were counted.
EpH4 cells were suspended in either DMEM (Control) or media containing 5 μM Latrunculin-A (LA), 1 μM Colchicine or the combination of both drugs for 30 minutes. Cells were then spun onto glass coverslips and fluorescently stained for α-tubulin (green) and polymerized actin (red). Protrusions that are difficult to see by phase contrast are easily discernible with immunostaining for α-tubulin (white arrows). Protrusions contain little polymerized actin, except at points of concentration, which are often at the end (arrowhead).
EpH4 and B19 cells were suspended over 2% agarose coated plates to prevent attachment in either serum-free DMEM or media containing. Latrunculin-A (5 μM) to enhance protrusions. For co-staining of α-tubulin and actin, suspended cells were then centrifuged onto poly-L-lysine coated coverslips (280 g×5 min), fixed in 3.7% formaldehyde in PBS for 10 min, and permeablized with 0.1% Triton X-100 in PBS. Adhered cells were then stained for 1 hr at room temperature using FITC-conjugated anti-α-tubulin (1:200; Sigma), Alexa-594 phalloidin (1:100; Molecular Probes), and Hoescht 33342 (1:5000; Sigma).
(§5) In order to initially characterize the cytoskeletal mechanism underlying these protrusions, suspended cells were treated with inhibitors of actin and tubulin polymerization (FIG. 2). After 15 minutes of suspension, the protrusions in untreated EpH4 or MCF10A cells remain fairly short (FIG. 2, white arrows). These early protrusions can often be difficult to detect with phase-contrast microscopy, due to interfering light refraction from the plasma membrane. […] Protrusions were more easily visible with immunofluorescence than phase contrast microscopy (FIG. 3, white arrows). Although actin filament staining was generally low along the length of the protrusion, dense points of actin were often found at the end of protrusions (FIG. 3, arrowheads).

MCF10A cells [5] = experiment: Protrusions in suspended cells treated with cytoskeletal inhibitors (MCF10A); type: cell-based, human; conditions: MCF10A, 15 minutes of suspension; Latrunculin-A 5 μM, Colchicine 1 μM
Description: as §4, §5
The nontumorigenic human mammary epithelial cell line (MCF10A) or the indicated human breast tumor cell lines were grown in suspension for 30-60 minutes, and protrusions were counted in random fields with phase-contrast microscopy. Values represent the mean±S.D. of three experiments in which at least 100 cells were counted. […] This effect was most apparent in the highly metastatic but exemplary Bt-474 and MDA-MB-231 cells (pictured, black arrows). The exemplary MCF10A cells show far fewer and shorter protrusions at the same time point (pictured, white arrows). Such protrusions are not observed in attached cells.

microtentacles = experiment: Microtentacle frequency after pretreatment with Okadaic Acid or Calyculin-A; type: cell-based; conditions: pretreated 1 h, suspended with or without Latrunculin-A
Description: In FIG. 35, cells were pretreated for 1 h with DMEM media alone (Control) or the indicated concentrations of either Okadaic Acid (OKA) […] or Calyculin-A (Cal-A) to promote vimentin disassembly. Cells were then suspended by trypsinization with or without addition of Latrunculin-A (LA) to enhance microtentacle frequency.

With `CC[C@]1(O)C[C@H]2CN(CCc3c([nH]c4ccccc34)[C@@](C(=O)OC)(c3cc4c(cc3OC)N(C=O)[C@H]3[C@@](O)(C(=O)OC)[C@H](OC(C)=O)[C@]5(CC)C=CCN6CC[C@]43[C@@H]65)C2)C1` [vincristine] the protrusions [1] was “inhibited”.
In the case of `COC(=O)Nc1nc2ccc(C(=O)c3cccs3)cc2[nH]1` [nocodazole], the protrusions [1] is reported as “inhibited”, the “attachment of cells to tissue culture surfaces” value (“attachment of cells” for short) (EpH4-Bcl2 cells [2]) is reported as “significantly delayed attachment” and the “cell-cell attachment (clustering)” value (EpH4-Bcl2 cells [3]) is reported as “prevented efficient clustering”.
With `CN[C@H]1CCc2cc(OC)c(OC)c(OC)c2-c2ccc(OC)c(=O)cc21` [colcemid] the protrusions [1] was “inhibited”.
In the case of `[Na+].[Na+].[Na+].[O]=[V]([O-])([O-])[O-]` [sodium orthovanadate], the protrusions (MCF10A cells [4]) is reported as “significantly reduces protrusions”.
For `CCN(CC)CC(=O)Nc1c(C)cccc1C` [Lidocaine], the protrusions (Bt-474) is given as “inhibited significantly”, the protrusions (MDA-231) is given as “inhibited significantly” and the metastasis (metastasis) is given as “reduce metastasis”.
With `N[C@@H](CSC(c1ccccc1)(c1ccccc1)c1ccccc1)C(=O)O` [S-Trityl-L-Cysteine] the protrusions (MCF10A cells [4]) was “significantly reduces protrusions”.
With `CC[C@]1(O)C[C@@H]2CN(CCc3c([nH]c4ccccc34)[C@@](C(=O)OC)(c3cc4c(cc3OC)N(C)[C@H]3[C@@](O)(C(=O)OC)[C@H](OC(C)=O)[C@]5(CC)C=CCN6CC[C@]43[C@@H]65)C2)C1` [vinblastine] the protrusions [1] was “inhibited”, the “attachment of cells” value (EpH4-Bcl2 cells [2]) was “significantly delayed attachment” and the “cell-cell attachment (clustering)” value (EpH4-Bcl2 cells [3]) was “prevented efficient clustering”.
For `COc1cc2c(c(OC)c1OC)-c1ccc(OC)c(=O)cc1[C@@H](NC(C)=O)CC2` [Colchicine], the protrusions [1] was “inhibited”, the protrusions (EpH4 cells) was “prevented protrusions” and the “attachment of cells” value (EpH4-Bcl2 cells [2]) was “significantly delayed attachment”. For the same compound, the “cell-surface attachment to uncoated or laminin-coated plates (XTT)” value (EpH4-Bcl2 cells [2]; EpH4-Bcl2 suspended one hour, LA 5 μM, Colchicine 1 μM) was “significantly prevents initial cell attachment”, the protrusions (MCF10A cells [5]) was “prevented protrusions” and the “cell-cell attachment (clustering)” value (EpH4-Bcl2 cells [3]) was “prevented efficient clustering”.
With `CCCCCC[C@@H]([C@@H](C)O)n1cnc2c(N)ncnc21` (racemic) [EHNA] the protrusions (MCF10A cells [4]) was “reduced protrusions, but these results were not statistically significant”.
For `COc1ccc(CNc2nc(NCc3ccc(OC)cc3)c3ncn(C(C)C)c3n2)cc1` [myoseverin], the protrusions [1] was “inhibited”.
For `COC[C@@H]([C@H](O)[C@H](O)C(=O)NCC[C@H](C)c1nc(/C=C/C[C@@H]2O[C@]3(C[C@@H](O)[C@@H]2C)O[C@H]([C@H](C[C@H](O)[C@H](C)[C@H](O)[C@H](C)/C=C(C)/C(C)=C/C=C/C(C)=C\C#N)OC)[C@H](OP(=O)(O)O)C3(C)C)co1)N(C)C` [Calyculin-A], the microtentacles (microtentacles) was “reduce microtentacles significantly” and the microtentacles (microtentacles; listed as calyculin-A) was “reduces microtentacles”.
For `C=C1[C@@H](O)[C@@H]2O[C@]3(CC[C@H](/C=C/[C@@H](C)[C@@H]4CC(C)=C[C@@]5(O[C@H](C[C@@](C)(O)C(=O)O)CC[C@H]5O)O4)O3)CC[C@H]2O[C@@H]1[C@@H](O)C[C@H](C)[C@H]1O[C@@]2(CCCCO2)CC[C@H]1C` [Okadaic acid], the microtentacles (microtentacles) was “reduce microtentacles significantly” and the microtentacles (microtentacles; listed as okadaic acid) was “reduces microtentacles”.
